We go through nine compounds from US12686692B2, “KRas G12D inhibitors” (Mirati Therapeutics, Inc., priority 2020, dated 2026).

Some results are limits rather than exact numbers.

By IC50 is commonly meant the point on the concentration scale where inhibition reaches its midpoint. A higher IC50 goes with weaker potency.

The assay has as its target KRas G12D (Homo sapiens, UniProt P01116, G12D). Description: KRas G12D Binding Assay (TR-FRET displacement of labeled tracer). More on the design: corresponding to amino acids 1:169, produced at Array BioPharma; biotin (protein is biotinylated). Particulars: TR-FRET displacement of Cy5 labelled tracer, biotinylated GDP-loaded KRAS G12D (aa 1:169), 60 minute incubation at 22° C. As for the experimental part:
This Example illustrates that exemplary compounds of the present invention bind to KRas G12D and are capable of displacing a labeled tracer ligand occupying the KRas G12D binding site.
The ability of a compound to bind to KRAS G12D was measured using a TR-FRET displacement assay. Biotinylated GDP-loaded recombinant human KRAS G12D (corresponding to amino acids 1:169, produced at Array BioPharma) was incubated with a custom-made Cy5 labelled tracer, europium labelled streptavidin and compound (2% DMSO final) in buffer (50 mM HEPES [pH 7.5], 5 mM MgCl2, 0.005% Tween-20 & 1 mM DTT). After a 60 minute incubation at 22° C., the reaction was measured using a PerkinElmer EnVision multimode plate reader via TR-FRET dual wavelength detection, and the percent of control (POC) calculated using a ratiometric emission factor. […] The POC values were fit to a 4-parameter logistic curve and the IC50 value was determined as the concentration where the curve crosses 50 POC.

KRas G12D, sequence (P01116 1-169 isoform P01116-2 G12D): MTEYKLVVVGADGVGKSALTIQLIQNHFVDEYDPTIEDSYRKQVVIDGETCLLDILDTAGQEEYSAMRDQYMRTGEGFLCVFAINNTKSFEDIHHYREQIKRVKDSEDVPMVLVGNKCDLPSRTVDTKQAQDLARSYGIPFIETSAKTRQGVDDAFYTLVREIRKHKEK

Regarding `CN1CCC[C@H]1COc1nc2c(c(N3C[C@H]4CC[C@@H](C3)N4)n1)CCN(c1cccc3cc(O)cc(Cl)c13)C2` [Example 113, 5-(4-((1R,5S)-3,8-diazabicyclo[3.2.1]octan-3-yl)-2-(((S)-1-methylpyrrolidin-2-yl)methoxy)-5,6-dihydropyrido[3,4-d]pyrimidin-7(8H)-yl)-4-chloronaphthalen-2-ol], the IC50 was 807 nM.

`COC[C@H]1C[C@@H]2CN(c3nc(OC[C@@H]4CCCN4C)nc4c3CCN(c3cccc5cccc(Cl)c35)C4)C[C@H]1N2` (single isomer, unassigned) [Example 94] returned an IC50 of 852 nM.

As for `CN1CCC[C@H]1COc1nc2c(c(N3C[C@H]4CC[C@@H](C3)N4)n1)CCN(c1cccc3c(Cl)cccc13)C2` [Example 15, 4-((1R,5S)-3,8-diazabicyclo[3.2.1]octan-3-yl)-7-(5-chloronaphthalen-1-yl)-2-(((S)-1-methylpyrrolidin-2-yl)methoxy)-5,6,7,8-tetrahydropyrido[3,4-d]pyrimidine], the IC50 stood at 7900 nM.

With `CN1CCC[C@H]1COc1nc2c(c(N3C[C@H]4C[C@@H](CCN)[C@@H](C3)N4)n1)CCN(c1cccc3cccc(Cl)c13)C2` [Example 39, 2-((1R,5S,6R)-3-(7-(8-chloronaphthalen-1-yl)-2-(((S)-1-methylpyrrolidin-2-yl)methoxy)-5,6,7,8-tetrahydropyrido[3,4-d]pyrimidin-4-yl)-3,8-diazabicyclo[3.2.1]octan-6-yl)ethan-1-amine], the concentration for half-maximal inhibition (IC50) was 2690 nM.

As for `CN1CCC[C@H]1COc1nc2c(c(N3C[C@H]4CC[C@@H](C3)N4)n1)CCN(c1nc(N)cc3ccccc13)C2` [Example 60, 1-(4-((1R,5S)-3,8-diazabicyclo[3.2.1]octan-3-yl)-2-(((S)-1-methylpyrrolidin-2-yl)methoxy)-5,8-dihydropyrido[3,4-d]pyrimidin-7(6H)-yl)isoquinolin-3-amine], the half-inhibitory concentration (IC50) is over 10000 nM.

On to `CN1CCC[C@H]1COc1nc2c(c(N3C[C@H]4CC[C@@H](C3)N4)n1)CCN(c1cccc3c(F)cccc13)C2` [Example 16, 4-((1R,5S)-3,8-diazabicyclo[3.2.1]octan-3-yl)-7-(5-fluoronaphthalen-1-yl)-2-(((S)-1-methylpyrrolidin-2-yl)methoxy)-5,6,7,8-tetrahydropyrido[3,4-d]pyrimidine], for which the IC50 came out at 1760 nM.

In the case of `CC(C)c1ccccc1N1CCc2c(nc(OCC34CCCN3[C@@H](COC(=O)N(C)C)CC4)nc2N2CC3CCC(C2)N3)C1` (stereo partly drawn) [Example 32, (7a-(((4-((1R,5S)-3,8-diazabicyclo[3.2.1]octan-3-yl)-7-(2-isopropylphenyl)-5,6,7,8-tetrahydropyrido[3,4-d]pyrimidin-2-yl)oxy)methyl)hexahydro-1H-pyrrolizin-3-yl)methyl dimethylcarbamate (trans enantiomers)], the IC50 was 1170 nM.

On to `CN1CCC[C@H]1COc1nc2c(c(N3C[C@H]4C[C@@H](C#N)[C@@H](C3)N4)n1)CCN(c1cccc3cccc(Cl)c13)C2` [Example 92, (1R,5S,6R)-3-(7-(8-chloronaphthalen-1-yl)-2-(((S)-1-methylpyrrolidin-2-yl)methoxy)-5,6,7,8-tetrahydropyrido[3,4-d]pyrimidin-4-yl)-3,8-diazabicyclo[3.2.1]octane-6-carbonitrile], for which the concentration for half-maximal inhibition (IC50) was found to be 5490 nM.

In turn, `CCc1cccc2cccc(N3CCc4c(nc(OC[C@@]56CCCN5C[C@H](F)C6)nc4C4CC5CCC(N5)C4O)C3)c12` (stereo in doubt) [Example 123, (1S,3R,5R)-3-(7-(8-ethylnaphthalen-1-yl)-2-(((2R,7aS)-2-fluorotetrahydro-1H-pyrrolizin-7a(5H)-yl)methoxy)-5,6,7,8-tetrahydropyrido[3,4-d]pyrimidin-4-yl)-8-azabicyclo[3.2.1]octan-2-ol] came in with an IC50 of 508 nM.
